Where a name gives a salt, the structure may show the parent alone.

For orientation: IC50 means the midpoint of a concentration-inhibition curve.

The target in assay [1] is partially purified pig heart adenosine kinase or recombinant human adenosine kinase. Briefly: AK inhibition. The conditions noted are these: 0.5 μM [U-14C] adenosine, pH 7.0, 37° C., 20 minutes. Type of assay: biochemical. Here is the method: Adenosine kinase activity was measured essentially as described by Yamada et al. Biochim. Biophys. Acta 660, 36-43 (1988) with a few minor modifications. Assay mixtures contained 50 mM TRIS-maleate buffer, pH 7.0, 0.1% BSA, 1 mM ATP 1 mM MgCl2, 0.5 μM [U-^14 C] adenosine (400-600 mCi/mmol) and varying duplicate concentrations of inhibitor. […] The amount of ^14 C-AMP was quantified by scintillation counting.

The subject of another assay is Rats (carrageenan paw). Briefly: Anti-inflammatory activity, carrageenan paw swelling. The format is in vivo. The conditions noted are these: rat, 10 mg/kg, swelling after 3 hours; for Carrageenan Paw (% inhibition) po: oral gavage. The method, then:
Carrageenan (Type λ) was suspended in sterile PBS at 1% (w/v), autoclaved for 30 minutes, and stored at room temperature. Rats were pretreated with vehicle or AK inhibitor (10 mg/kg) by oral gavage or i.p. administration and the volume of the left hind paw was measured using a water displacement plethysmometer (Stoelting Co., Wood Dale, Ill.). One hour after oral treatment or 30 minutes after i.p. treatment, the rats were briefly anesthetized, and 0.1 ml of the carrageenan solution was injected subcutaneously into the planar surface of the left hind paw. The ensuing paw swelling was measured by plethysmometry after 3 hours. The paw volume in millileters was […]. Data are presented in Table 2 as the percent inhibition of paw swelling in AK inhibitor treated animals, compared to vehicle treated control animals.

With `CCN(CC)CCNC(=O)c1ccc(-c2cn([C@@H]3O[C@H](C)[C@@H](O)[C@H]3O)c3ncnc(Nc4ccc(F)cc4)c23)cc1` [Compound 200, 4-N-(4-fluorophenyl)amino-5-[4-(2-N,N-diethylaminoethyleneaminocarbonyl)phenyl]-7-(5-deoxy-1-β-D-ribofuranosyl)pyrrolo[2,3-d]pyrimidine hydrochloride], the IC50 in assay [1] is 200 nM. On to `C[C@H]1O[C@@H](n2cc(-c3ccc(/C=C/C(=O)O)cc3)c3c(Nc4ccc(F)cc4)ncnc32)[C@H](O)[C@@H]1O` [Compound 202, 4-N-(4-fluorophenyl)amino-5-[4-(2-carboxy-E-ethenyl)phenyl]-7-(5-deoxy-1-β-D-ribofuranosyl)pyrrolo[2,3-d]pyrimidine], for which the half-maximal inhibitory concentration (IC50) in assay [1] was 20 nM. Moreover, in the assay on Rats (carrageenan paw), the “Carrageenan Paw (% inhibition) ip” value came out at 3.4% and the “Carrageenan Paw (% inhibition) po” value is 3.9%.

Consider `C[C@H]1O[C@@H](n2cc(-c3ccc(C(=O)N4CCNCC4)cc3)c3c(Nc4ccc(F)cc4)ncnc32)[C@H](O)[C@@H]1O` [Compound 199, 4-N-(4-fluorophenyl)amino-5-[4-(N-piperazinocarbonyl)phenyl]-7-(5-deoxy-1-β-D-ribofuranosyl)pyrrolo(2,3-d]pyrimidine hydrochloride salt], for which the IC50 in assay [1] was 550 nM. The same measure, in the same setting: the result for `C[C@H]1O[C@@H](n2cc(-c3ccc(CN(C)C)cc3)c3c(Nc4ccc(F)cc4)ncnc32)[C@H](O)[C@@H]1O` [Compound 198, 4-N-(4-fluorophenyl)amino-5-[4-(dimethylaminomethyl)phenyl]-7-(5-deoxy-β-D-ribofuranosyl)pyrrolo[2,3-d]pyrimidine] reads 120 nM; that for `CCN(CC)CCNC(=O)c1ccc(Nc2ncnc3c2c(-c2ccccc2)cn3[C@@H]2O[C@H](C)[C@@H](O)[C@H]2O)cc1` [Compound 211], 0.5 nM.

Consider `C[C@H]1O[C@@H](n2cc(-c3ccccc3)c3c(Nc4ccc(C(N)=NO)cc4)ncnc32)[C@H](O)[C@@H]1O` [Compound 37, 4-N-(4-amidoximephenyl)amino-5-phenyl-7-(5-deoxy-1-β-D-ribofuranosylpyrrolo[2,3-d]pyrimidine hydrochloride], for which the half-maximal inhibitory concentration (IC50) in assay [1] amounted to 5 nM. In the assay on Rats (carrageenan paw), the “Carrageenan Paw (% inhibition) ip” value is 17.9% and the “Carrageenan Paw (% inhibition) po” value is given as 23.3%. With `C[C@H]1O[C@@H](n2cc(-c3ccccc3)c3c(Nc4ccc(C(=O)NN5CCCCC5)cc4)ncnc32)[C@H](O)[C@@H]1O` [Compound 212], the IC50 in assay [1] was found to be 2 nM. Moreover, in the assay with Rats (carrageenan paw), the “Carrageenan Paw (% inhibition) ip” value came to 1.8% and the “Carrageenan Paw (% inhibition) po” value is recorded as 0.0%. Take `C[C@H]1O[C@@H](n2cc(-c3ccccc3)c3c(Nc4ccc(CC(=O)N5CCNCC5)cc4)ncnc32)[C@H](O)[C@@H]1O` [Compound 189]: the half-maximal inhibitory concentration (IC50) in assay [1] is 1 nM. Moreover, in the assay with Rats (carrageenan paw), the “Carrageenan Paw (% inhibition) ip” value is reported as 30.1% and the “Carrageenan Paw (% inhibition) po” value worked out at 12.1%. Taken in the same sequence, the figures for `C[C@H]1O[C@@H](n2cc(-c3ccccc3)c3c(Nc4ccc(CCNC(=N)N)cc4)ncnc32)[C@H](O)[C@@H]1O` [Compound 267, 4-N-[4-(2-Guanidinoethyl)phenyl]amino-5-phenyl-7-(5-deoxy-1-β-D-ribofuranosyl)pyrrolo[2,3-d]pyrimidine hydrochloride] were 1 nM, 52.3% and 15.4%. Taken in the same sequence, the figures for `C[C@H]1O[C@@H](n2cc(-c3ccccc3)c3c(Nc4ccc(CCO)cc4)ncnc32)[C@H](O)[C@@H]1O` [Compound 2, 4-N-(4-(2-Hydroxyethyl)phenyl)amino-5-phenyl-7-(5-deoxy-β-D-ribofuranosyl)pyrrolo[2,3-d]pyrimidine] were 1 nM, 13.2% and 1.9%. Consider `C[C@H]1O[C@@H](n2cc(-c3ccccc3)c3c(Nc4ccc(C(=N)N)cc4)ncnc32)[C@H](O)[C@@H]1O` [Compound 39, 4-N -(4-amidinophenyl)amino-5-phenyl-7-(5-deoxy-1-β-ribofuranosyl)pyrrolo[2,3-d]pyrimidine], for which the IC50 in assay [1] turned out to be 1 nM. Consider `C[C@H]1O[C@@H](n2cc(-c3cccc(NC(=N)N)c3)c3c(Nc4ccc(F)cc4)ncnc32)[C@H](O)[C@@H]1O` [Compound 206, 4-N-(4-fluorophenyl)amino-5-(3-guanidinophenyl)-7-(5-deoxy-1-β-D-ribofuranosyl)pyrrolo[2,3-d]pyrimidine], for which the 50% inhibitory concentration (IC50) in assay [1] worked out at 7 nM. Moreover, in the assay with Rats (carrageenan paw), the “Carrageenan Paw (% inhibition) ip” value was found to be 10.1% and the “Carrageenan Paw (% inhibition) po” value is 23.5%. In the case of `C[C@H]1O[C@@H](n2cc(I)c3c(NCc4cccnc4)ncnc32)[C@H](O)[C@@H]1O` [Compound 44, 4-N-(3-pyridylmethylamino)-5-iodo-7-(5-deoxy-1-β-D-ribofuranosyl)pyrrolo[2,3-d]pyrimidine], the IC50 in assay [1] was 120 nM.

Turning to `C[C@H]1O[C@@H](n2cc(I)c3c(NCc4ccccn4)ncnc32)[C@H](O)[C@@H]1O` [Compound 41, 4-N-(2-pyridylmethylamino)-5-iodo-7-(5-deoxy-1-β-D-ribofuranosyl)pyrrolo[2,3-d]pyrimidine], in assay [1], the IC50 came to 70 nM. Consider `C[C@H]1O[C@@H](n2cc(-c3ccc(CCC(=O)O)cc3)c3c(Nc4ccc(F)cc4)ncnc32)[C@H](O)[C@@H]1O` [Compound 204, 4-N-(4-fluorophenyl)amino-5-[4-(2-carboxyethyl)phenyl]-7-(5-deoxy-1-β-D-ribofuranosyl)pyrrolo[2,3-d]pyrimidine], for which the IC50 in assay [1] is 45 nM. Take `C[C@H]1O[C@@H](n2cc(-c3ccccc3)c3c(Nc4ccc(NC(=N)N)cc4)ncnc32)[C@H](O)[C@@H]1O` [Compound 269, 4-N-(4-Guanidinophenyl)amino-5-phenyl-7-(5-deoxy-1-β-D-ribofuranosyl)pyrrolo[2,3-d]pyrimidine]: the IC50 in assay [1] is 6 nM. As to `C[C@H]1O[C@@H](n2cc(-c3ccccc3)c3c(Nc4ccc(C(=O)N5CCNCC5)cc4)ncnc32)[C@H](O)[C@@H]1O` [Compound 210, 4-N-[4-(4-piperazinocarbonylphenyl)]amino-5-phenyl-7-(5-deoxy-1-β-D-ribofuranosyl)pyrrolo[2,3-d]pyrimidine], in assay [1], the half-maximal inhibitory concentration (IC50) was found to be 2 nM. Besides, in the assay with Rats (carrageenan paw), the “Carrageenan Paw (% inhibition) ip” value is given as 23.8% and the “Carrageenan Paw (% inhibition) po” value amounted to 0.0%. Taken in the same sequence, the figures for `C[C@H]1O[C@@H](n2cc(-c3ccccc3)c3c(Nc4ccc(C(=O)O)cc4)ncnc32)[C@H](O)[C@@H]1O` [Compound 209, 4-N-(4carboxyphenyl)amino-5-phenyl-7-(5-deoxy-1-β-D-ribofuranosyl)pyrrolo[2,3-d]pyrimidine] were 80 nM, 22.0% and 0.0%. On to `C[C@H]1O[C@@H](n2cc(-c3ccccc3)c3c(Nc4ccc(CCN5CCNCC5)cc4)ncnc32)[C@H](O)[C@@H]1O` [Compound 4, 4-N-[4-(2-(1-piperazino)ethyl)phenyl]amino-5-phenyl-7-(5-deoxy-β-D-ribofuranosyl)pyrrolo[2,3-d]pyrimidine], for which, in the assay with Rats (carrageenan paw), the “Carrageenan Paw (% inhibition) po” value worked out at 2.5%. With `C[C@H]1O[C@@H](n2cc(I)c3c(NCc4nc5ccccc5[nH]4)ncnc32)[C@H](O)[C@@H]1O` [Compound 45, 4-N-(2-benzimidazolylmethyl)amino-5-iodo-7-(5-deoxy-1-β-D-ribofuranosyl) pyrrolo[(2,3-d)]pyrimidine], the concentration for half-maximal inhibition (IC50) in assay [1] stood at 500 nM.

`CC(=O)NS(=O)(=O)c1ccc(Nc2ncnc3c2c(-c2ccccc2)cn3[C@@H]2O[C@H](C)[C@@H](O)[C@H]2O)cc1` [Compound 40, 4-N-[4-(N-acetylaminosulfonyl)phenyl]amino-5-phenyl-7-(5-deoxy-1-β-D-ribofuranosyl)pyrrolo[2,3-d]pyrimidine]: the IC50 in assay [1] stood at 3000 nM. On the same count and under the same terms, for `C[C@H]1O[C@@H](n2cc(-c3cccnc3)c3c(NCc4ccccn4)ncnc32)[C@H](O)[C@@H]1O` [Compound 48, 4-N-(2-pyridylmethyl)amino-5-(3-pyridino)-7-(5-deoxy-1-β-D-ribofuranosyl)pyrrolo[2,3-d]pyrimidine] the value was 300 nM. For the molecule `C[C@H]1O[C@@H](n2cc(-c3ccccc3)c3c(Nc4ccc(CC(=O)O)cc4)ncnc32)[C@H](O)[C@@H]1O` [Compound 186, 4-N-(4-Carboxymethylphenyl)amino-5-phenyl-7-(5-deoxy-1-β-D-ribofuranosyl)pyrrolo[2,3-d]pyrimidine], the half-inhibitory concentration (IC50) in assay [1] was found to be 80 nM. On the same count and under the same terms, the result for `C[C@H]1O[C@@H](n2cc(-c3ccc(CN4CCNCC4)cc3)c3c(Nc4ccc(F)cc4)ncnc32)[C@H](O)[C@@H]1O` [Compound 197, 4-N-(4-fluorophenyl)amino-5-[4-(N-piperazinomethyl)phenyl]-7-(5-deoxy-β-D-ribofuranosyl)pyrrolo[2,3-d]pyrimidine] reads 9 nM. On to `OC[C@@H]1O[C@@H](n2cc(I)c3c(NCc4ccccn4)ncnc32)[C@H](O)[C@@H]1O` [Compound 46, 4-N-(2-pyridylmethyl)amino-5-iodo-7-(a-L-lyxofuranosyl)pyrrolo(2,3-d)pyrimidine], for which the IC50 in assay [1] stood at 220 nM.

The values are drawn from US5795977A, “Water soluble adenosine kinase inhibitors” (Metabasis Therapeutics, Inc., priority 1996, dated 1998).
